In EP4810052A2, “HCRHR2 SELECTIVE POLYPEPTIDES” (Gubra A/S, priority 2023, dated 2026):
Read-outs that look alike come from different tables or passages of the source. Marks after values point to notes of the source that are not given here. Starred links: 1 amine or outer side, 2 acyl side, 3 side chain; linkers in the order of their positions; H or OH if unused. Non-standard residues stand in square brackets, D forms with d. Residues, ends and D or L forms follow the SMILES beside them. Groups on a side chain read outwards from the residue. *: point of attachment. C20 diacid = O=C(O)CCCCCCCCCCCCCCCCCCC(=O)*; γGlu = O=C(O)[C@H](CCC(=O)[*:2])N[*:1]; NMeI = CC[C@H](C)[C@H](NC)C(=O)O; Nle = CCCC[C@H](N)C(=O)O; AEEA = NCCOCCOCC(=O)O; Aib = CC(C)(N)C(=O)O

Columns and labels:
[1] = target: T1, hCRHR1 (Homo sapiens, UniProt P34998); experiment: HTRF cAMP assay, determination of hCRHR1 potency (peptide libraries 5 conc., purified peptides 11 conc.); assay type: cell-based
T1 sequence (P34998 24-415): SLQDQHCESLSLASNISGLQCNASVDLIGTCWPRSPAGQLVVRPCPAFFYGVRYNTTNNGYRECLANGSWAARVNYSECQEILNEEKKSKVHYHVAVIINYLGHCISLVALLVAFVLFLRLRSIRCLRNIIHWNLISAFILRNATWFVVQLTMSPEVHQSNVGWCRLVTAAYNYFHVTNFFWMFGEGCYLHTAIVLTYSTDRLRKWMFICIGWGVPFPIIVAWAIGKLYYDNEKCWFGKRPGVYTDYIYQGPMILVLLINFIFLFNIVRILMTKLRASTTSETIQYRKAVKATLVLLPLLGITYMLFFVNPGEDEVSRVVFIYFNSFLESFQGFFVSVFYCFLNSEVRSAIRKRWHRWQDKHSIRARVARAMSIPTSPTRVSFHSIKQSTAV
How it was run: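 Cellular cAMP was read by time-resolved FRET between d2-labelled cAMP and cryptate anti-cAMP antibody. The cells were freshly thawed suspension CHO-K1 cells stably expressing human CRHR1.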

[2] = PK in rats; assay type: in vivo; parameters: T½ / MRT: unit not given here; conditions: for MRT / T½ / clearance / half-life / Cmax / Tmax: Rat; for clearance / half-life / Cmax / Tmax / bioavailability: male, in vivo; for clearance / half-life / Cmax / Tmax: Sprague Dawley (RJHan:SD); for half-life: read-out: T½ (converted); for bioavailability: Sprague Dawley, rat
How it was run: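 Lean male Sprague Dawley rats (n = 3 per group) got a two-peptide combination at 50 nmol/kg IV and SC. Plasma was sampled from 0.17 to 96 h post dose and analysed by LC-MSMS. PK parameters came from non-compartmental analysis.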

[3] = target: T2, hCRHR2 (Homo sapiens, UniProt Q13324); experiment: HTRF cAMP assay, determination of hCRHR2 potency (peptide libraries 5 conc., purified peptides 11 conc.); assay type: cell-based
T2 sequence (Q13324 1-411): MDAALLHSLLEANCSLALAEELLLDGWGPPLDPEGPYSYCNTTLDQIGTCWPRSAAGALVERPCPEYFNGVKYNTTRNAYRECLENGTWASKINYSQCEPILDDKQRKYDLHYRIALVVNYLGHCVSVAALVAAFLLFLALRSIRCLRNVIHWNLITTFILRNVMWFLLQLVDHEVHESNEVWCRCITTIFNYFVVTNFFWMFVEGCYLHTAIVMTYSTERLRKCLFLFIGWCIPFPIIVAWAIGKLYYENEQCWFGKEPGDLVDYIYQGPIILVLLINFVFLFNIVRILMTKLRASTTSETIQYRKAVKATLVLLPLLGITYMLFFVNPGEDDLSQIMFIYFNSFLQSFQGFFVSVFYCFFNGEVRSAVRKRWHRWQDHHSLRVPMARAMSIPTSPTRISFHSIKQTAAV
How it was run: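 EC50 derived by variable-slope sigmoid regression of FRET-based cAMP data; cellular cAMP displaced d2-labelled tracer from cryptate anti-cAMP antibody. Stable human CRHR2 CHO-K1 suspension cells, revived from frozen stocks just before the run.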

[4] = Effect on acute food intake in mice; assay type: in vivo; conditions: single subcutaneous dose
Description: Male NMRI mice were obtained from JanVier (JanVier Labs, France) at 5 weeks of age. The animals were group-housed 4 mice pr. cage under a 12/12 h dark-light cycle, light off at 1 PM. Room temperature was controlled to 22°C ± 1°C, with 60 % ± 20% humidity. Animals had ad libitum access to regular rodent chow (Altromin 1324, Brogaarden, Denmark) and tap water.
Animals were transferred 5-7 days before the start of the study to a real-time food intake monitoring system, HM-2 system (MBRose, Denmark) to allow acclimatization to experimental conditions. As the animals were uniquely identified with microchips, each individual animal was identified by its microchip upon entry and exit from the food channel. Randomization of the mice for each study group (n=7-8) was based on body weight measured the day before the start of the study. A vehicle-treated group was included in each experiment. Six hours before the start of the dark phase, animals were fasted. One hour before the dark phase, animals were dosed once subcutaneously with test peptide. Food intake was reported hourly for a period of 72 hours. The percentage of food intake reduction was normalized to average food intake from the vehicle group. Statistical significance was evaluated using One-way analysis of variance with Dunnett's multiple comparison test. P < 0.05 was considered statistically significant.
Selected compounds were tested according to the general procedure on acute food intake in mice to determine the effect of a single subcutaneous dose on food intake in mice over 3 days.

[5] = Table 5, purified peptides, read-out: hCRHR1 EC50
[6] = stable cell system, Table 10, read-out: Stable EC50 (nM) hCRHR 1
[7] = Table 5, purified peptides, read-out: hCRHR2 EC50

Structure (SMILES) | Solubility pH 7.5, target conc. =10 mg/mL (measured mg/mL) [mg/mL] | MRT [2] | T½ [2] | % FI compared to vehicle, 24 h post-dosing ([4]; 30 nmol/kg) | % FI compared to vehicle, 24 h post-dosing ([4]; 100 nmol/kg) | % FI compared to vehicle, 24 h post-dosing ([4]; 300 nmol/kg) | EC50 [1, 5] [nM] | EC50 [1, 6] [nM] | Solubility pH 6.5 (mg/ml) | Solubility pH 7.0 (mg/mL) | Solubility pH 7.5 (mg/mL) | Solubility pH 7.5 + phenol (mg/mL) | clearance ([2]; iv, 50 nmol/kg i.v.) [mL/min/kg] | half-life ([2]; iv, 50 nmol/kg i.v.) [h] | Cmax ([2]; sc, 50 nmol/kg s.c.) [nM] | Tmax ([2]; sc, 50 nmol/kg s.c.) [h] | half-life ([2]; sc, 50 nmol/kg s.c.) [h] | bioavailability ([2]; sc) [%] | Selectivity ratio (hCRHR1/ hCRHR2) ([3]; Table 5) | EC50 [3, 7] [nM] | further results
CC[C@H](C)[C@H](N)C(=O)N[C@H](C(=O)N[C@@H](CC(C)C)C(=O)N[C@@H](CO)C(=O)N[C@@H](CC(C)C)C(=O)N[C@@H](CC(=O)O)C(=O)N[C@H](C(=O)N1CCC[C@H]1C(=O)N[C@H](C(=O)NCC(=O)N[C@@H](CC(C)C)C(=O)N[C@@H](CC(C)C)C(=O)N[C@@H](CCC(N)=O)C(=O)N[C@H](C(=O)N[C@@H](CC(C)C)C(=O)N[C@@H](CC(C)C)C(=O)N[C@@H](CCC(=O)O)C(=O)N[C@@H](CCC(N)=O)C(=O)N[C@@H](C)C(=O)N[C@@H](CCCNC(=N)N)C(=O)N[C@@H](C)C(=O)N[C@@H](CCCNC(=N)N)C(=O)N[C@@H](C)C(=O)N[C@@H](C)C(=O)N[C@@H](CCCNC(=N)N)C(=O)N[C@@H](CCC(=O)O)C(=O)N[C@@H](CCC(N)=O)C(=O)N[C@@H](C)C(=O)N[C@@H](CCCCNC(=O)COCCOCCNC(=O)COCCOCCNC(=O)CC[C@H](NC(=O)CC[C@H](NC(=O)CCCCCCCCCCCCCCCCCCC(=O)O)C(=O)O)C(=O)O)C(=O)NC(C)(C)C(=O)N[C@@H](CC(N)=O)C(=O)N[C@@H](C)C(=O)N[C@@H](CCC(=O)O)C(=O)N[C@H](C(=O)N[C@@H](CC(C)C)C(=O)N[C@@H](C)C(=O)N[C@@H](CCC(=O)O)C(=O)N[C@H](C(N)=O)C(C)C)[C@@H](C)CC)[C@@H](C)CC)[C@@H](C)CC)C(C)C)C(C)C [SEQ ID NO: 19] (H-IVLSLDVPIGLLQILLEQARARAAREQAK([AEEA-AEEA-γGlu-γGlu-C20 diacid])[Aib]NAEILAEV-NH2) | 9.6 | 7.4 | 5.9 | 56.47*** % | 29.68*** % | 21.66*** % | – | – | – | – | – | – | – | – | – | – | – | – | – | – | EC50 ([1]; purified peptides, CHO-K1 cells stably expressing hCRHR1, cAMP HTRF, read-out: hCRHR1 EC50): > 5000 nM; Selectivity ratio (hCRHR1/ hCRHR2) ([3]; hCRHR1-EC50/hCRHR2-EC50): >3125; EC50 ([3]; purified peptides, CHO-K1 cells stably expressing hCRHR2, cAMP HTRF, read-out: hCRHR2 EC50): 1.6 nM
CCCC[C@H](NC(=O)[C@@H](NC(=O)[C@H](CCC(=O)O)NC(=O)C(C)(C)NC(=O)[C@H](CC(N)=O)NC(=O)[C@@H](NC(=O)[C@H](CCCCNC(=O)COCCOCCNC(=O)COCCOCCNC(=O)CC[C@H](NC(=O)CC[C@H](NC(=O)CCCCCCCCCCCCCCCCCCC(=O)O)C(=O)O)C(=O)O)NC(=O)[C@H](C)NC(=O)[C@H](CCC(N)=O)NC(=O)[C@H](CCC(=O)O)NC(=O)[C@H](CCCNC(=N)N)NC(=O)[C@H](C)NC(=O)[C@H](C)NC(=O)[C@H](CCCNC(=N)N)NC(=O)[C@H](C)NC(=O)[C@H](CCCNC(=N)N)NC(=O)[C@H](C)NC(=O)[C@H](CCC(N)=O)NC(=O)[C@H](CO)NC(=O)[C@H](CC(C)C)NC(=O)[C@H](CC(C)C)NC(=O)[C@@H](NC(=O)[C@H](CCC(N)=O)NC(=O)[C@H](CC(C)C)NC(=O)[C@H](CC(C)C)NC(=O)CNC(=O)[C@@H](NC(=O)[C@@H]1CCCN1C(=O)[C@@H](NC(=O)[C@H](CC(=O)O)NC(=O)[C@H](CC(C)C)NC(=O)[C@H](CO)NC(=O)[C@H](CC(C)C)NC(=O)[C@@H](NC(=O)[C@@H](NC)[C@@H](C)CC)C(C)C)C(C)C)[C@@H](C)CC)[C@@H](C)CC)[C@@H](C)O)[C@@H](C)CC)C(=O)N[C@@H](C)C(=O)N[C@@H](CCC(=O)O)C(=O)N[C@H](C(N)=O)C(C)C [SEQ ID NO: 215] (H-[NMeI]VLSLDVPIGLLQILLSQARARAAREQAK([AEEA-AEEA-γGlu-γGlu-C20 diacid])TN[Aib]EI[Nle]AEV-NH2) | 12 | 6.7 | 5.7 | 38.67*** % | 20.26*** % | 10.31*** % | > 5000 | > 5000 | 19.6 | 20.6 | 17.7 | 18.0 | 0.2 | 5.7 | 42 | 24 | 6.1 | 28 | >5747 | 0.87 | EC50 ([1]; Table 4, library peptides having X^38 = Nle, read-out: hCRHR1 pEC50 (converted)): 3160 nM; EC50 ([3]; Table 4, library peptides having X^38 = Nle, read-out: hCRHR2 pEC50 (converted)): 0.0251 nM
CCCC[C@H](NC(=O)[C@@H](NC(=O)[C@H](CCC(=O)O)NC(=O)[C@H](C)NC(=O)[C@H](CC(N)=O)NC(=O)C(C)(C)NC(=O)[C@H](CCCCNC(=O)COCCOCCNC(=O)COCCOCCNC(=O)CC[C@H](NC(=O)CC[C@H](NC(=O)CCCCCCCCCCCCCCCCCCC(=O)O)C(=O)O)C(=O)O)NC(=O)[C@H](C)NC(=O)[C@H](CCC(N)=O)NC(=O)[C@H](CCC(=O)O)NC(=O)[C@H](CCCNC(=N)N)NC(=O)[C@H](C)NC(=O)[C@H](C)NC(=O)[C@H](CCCNC(=N)N)NC(=O)[C@H](C)NC(=O)[C@H](CCCNC(=N)N)NC(=O)[C@H](C)NC(=O)[C@H](CCC(N)=O)NC(=O)[C@H](CO)NC(=O)[C@H](CC(C)C)NC(=O)[C@H](CC(C)C)NC(=O)[C@@H](NC(=O)[C@H](CCC(N)=O)NC(=O)[C@H](CC(C)C)NC(=O)[C@H](CC(C)C)NC(=O)CNC(=O)[C@@H](NC(=O)[C@@H]1CCCN1C(=O)[C@@H](NC(=O)[C@H](CC(=O)O)NC(=O)[C@H](CC(C)C)NC(=O)[C@H](CO)NC(=O)[C@H](CC(C)C)NC(=O)[C@@H](NC(=O)[C@@H]1CCCN1)C(C)C)C(C)C)[C@@H](C)CC)[C@@H](C)CC)[C@@H](C)CC)C(=O)N[C@@H](C)C(=O)N[C@@H](CCC(=O)O)C(=O)N[C@H](C(N)=O)C(C)C [SEQ ID NO: 238] (H-PVLSLDVPIGLLQILLSQARARAAREQAK([AEEA-AEEA-γGlu-γGlu-C20 diacid])[Aib]NAEI[Nle]AEV-NH2) | 11 | 14.2 | 10.2 | 29.73*** % | 12.92*** % | 7.94*** % | > 5000 | > 5000 | 20.4 | 20.6 | 18.0 | 17.9 | 0.117 | 10.2 | 91 | 24 | 11 | 43 | >6329 | 0.79 | –
